Experimental data reported in ChEMBL document CHEMBL1135857, “Exploration of peptidyl hydrazones as water-soluble calpain inhibitors” (Bioorg Med Chem Lett, 2002).
Values after ≈ are worked out from the molar mass of the structure shown.

Key:
[1] = Water solubility was determined at pH 6; format: ADME
[2] = Water solubility was determined at pH 7; format: ADME
[3] = target: T1, Calpain-1 catalytic subunit (Sus scrofa, UniProt P35750); assay: Tested for inhibitory activity against porcine erythrocyte Mu-calpain
T1 sequence (P35750 whole entry): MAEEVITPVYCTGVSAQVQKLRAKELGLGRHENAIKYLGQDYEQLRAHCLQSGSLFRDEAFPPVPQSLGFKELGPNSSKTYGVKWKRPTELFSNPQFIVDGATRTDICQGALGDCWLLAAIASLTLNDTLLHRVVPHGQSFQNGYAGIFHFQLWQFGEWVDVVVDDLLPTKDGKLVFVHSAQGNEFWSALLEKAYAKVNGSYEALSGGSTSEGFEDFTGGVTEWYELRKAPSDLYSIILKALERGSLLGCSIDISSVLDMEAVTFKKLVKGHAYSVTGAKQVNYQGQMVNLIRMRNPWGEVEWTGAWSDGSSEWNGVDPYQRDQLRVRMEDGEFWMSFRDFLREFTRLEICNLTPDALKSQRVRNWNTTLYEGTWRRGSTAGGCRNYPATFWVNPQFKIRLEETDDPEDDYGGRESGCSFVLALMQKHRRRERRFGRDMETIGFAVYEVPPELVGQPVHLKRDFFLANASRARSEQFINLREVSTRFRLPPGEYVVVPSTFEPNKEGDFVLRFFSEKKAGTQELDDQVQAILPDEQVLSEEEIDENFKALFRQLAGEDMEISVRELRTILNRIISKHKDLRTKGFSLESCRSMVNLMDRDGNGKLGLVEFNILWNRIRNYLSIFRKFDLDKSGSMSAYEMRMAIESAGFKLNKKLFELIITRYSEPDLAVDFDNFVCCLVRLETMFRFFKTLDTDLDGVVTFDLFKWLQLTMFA

[4] = Water solubility was determined at pH 5; format: ADME
[5] = Water solubility was determined at pH 4; format: ADME

SMILES	solubility [1]	solubility [2]	IC50 [3]	solubility [4]	solubility [5]
CC(C)C[C@@H](/C=N/NCCO)NC(=O)[C@@H](NS(=O)(=O)c1ccc(F)cc1)C(C)C	226 µg/mL (≈ 525 µM)	293 µg/mL (≈ 681 µM)	190 nM	234 µg/mL (≈ 543 µM)	228 µg/mL (≈ 530 µM)
CC(C)C[C@@H](/C=N/NC(N)=O)NC(=O)[C@@H](NS(=O)(=O)c1ccc(F)cc1)C(C)C	–	–	680 nM	–	433 µg/mL (≈ 1010 µM)
CC(C)C[C@@H](C=O)NC(=O)[C@@H](NS(=O)(=O)c1ccc(F)cc1)C(C)C	100 µg/mL (≈ 268 µM)	105 µg/mL (≈ 282 µM)	35 nM	–	102 µg/mL (≈ 274 µM)
CC(C)[C@H](NS(=O)(=O)c1ccc(F)cc1)C(=O)NC/C=N/NC(=O)CN(C)C	> 5000 µg/mL	> 5000 µg/mL	> 10000 nM	> 5000 µg/mL	> 5000 µg/mL
CC(C)[C@H](NS(=O)(=O)c1ccc(F)cc1)C(=O)NC/C=N/N1CCOCC1	692 µg/mL (≈ 1730 µM)	667 µg/mL (≈ 1670 µM)	6200 nM	840 µg/mL (≈ 2100 µM)	1260 µg/mL (≈ 3150 µM)
CC(C)C[C@@H](/C=N/N1CCOCC1)NC(=O)[C@@H](NS(=O)(=O)c1ccc(F)cc1)C(C)C	60.8 µg/mL (≈ 133 µM)	58.2 µg/mL (≈ 127 µM)	790 nM	63.3 µg/mL (≈ 139 µM)	67.3 µg/mL (≈ 147 µM)
